The supplement of paper PMC10933113
Where a name gives a salt, the structure may show the parent alone. ± gives the uncertainty stated by the source.

Columns and labels:
[1] = system: KeratinoSens (HaCaT ARE-luciferase) cells; test: efficacy of ARE luciferase induction relative to DMSO (% activity over DMSO); higher = stronger induction; conditions: exposure time: 24 h
[2] = system: THP-1; test: efficacy of IL-8 induction relative to DMSO (% activity); higher = stronger induction; conditions: exposure time: 18 h
[3] = system: cysteine peptide Ac-RFAACAA-COOH; test: AC50 of cysteine peptide concentration-response (direction given by sign of efficacy); higher = less potent; conditions: incubation time: 24 h
[4] = system: cysteine peptide Ac-RFAACAA-COOH; test: efficacy of cysteine peptide change (negative = depletion) (% activity); higher = less depletion; conditions: incubation time: 24 h
[5] = system: lysine peptide Ac-RFAAKAA-COOH; test: efficacy of lysine peptide change (negative = depletion) (% activity); higher = less depletion; conditions: incubation time: 24 h
[6] = system: KeratinoSens (HaCaT ARE-luciferase) cells; test: cytotoxicity AC50 (CellTiter-Fluor viability); higher = less cytotoxic; conditions: exposure time: 24 h
[7] = system: KeratinoSens (HaCaT ARE-luciferase) cells; test: AC50 of Nrf2/ARE luciferase induction; higher = less potent; conditions: exposure time: 24 h

Row | Compound | efficacy of ARE luciferase induction [1] | efficacy of IL-8 induction [2] | AC50 [3] [µM] | efficacy of cysteine peptide change [4] | efficacy of lysine peptide change [5] | cytotoxicity AC50 [6] [µM] | AC50 of Nrf2/ARE luciferase induction [7] [µM]
1 | CCOP(=S)(OCC)Oc1nc(Cl)c(Cl)cc1Cl [Chlorpyrifos] | 32.7 ± 17 | 8.52 ± 1.5 | 9.18 ± 2.6 | -97.5 ± 7.8 | 26.7 ± 11 |  | 
2 | COC(=O)Nc1nc2ccc(C(=O)C3CC3)cc2[nH]1 [Cyclobendazole] | 21.4 ± 9.4 | 24.9 ± 13 | 10.1 ± 5.7 | -42.3 ± 2.6 | -14 ± 5.3 | 3 ± 0.85 | 
3 | O=C1c2cccc(O)c2C(=O)c2c(O)cccc21 [Danthron] | 15 ± 14 | 2.66 ± 9.7 | 4.77 ± 1.4 | -72.3 ± 21 | -14.7 ± 8 |  | 
4 | CCOP(=S)(OCC)SC(CCl)N1C(=O)c2ccccc2C1=O (stereo unspecified) [Dialifor] | 63 ± 32 | 5.64 ± 12 | 3.87 ± 0.66 | -101 ± 9.9 | -69.5 ± 7.4 | 66.8 ± 15 | 
5 | CCCCC/C=C\C=C\C(=O)OCC [Ethyl (2E,4Z)-deca-2,4-dienoate] | 68.2 ± 0.72 | 24.4 ± 5.7 | 13.7 ± 2.3 | -99.8 ± 5.5 | -21.2 ± 2.9 |  | 
6 | CO[C@@H]1[C@H](OC(=O)/C=C/C=C/C=C/C=C/C(=O)O)CC[C@]2(CO2)[C@H]1[C@@]1(C)O[C@@H]1CC=C(C)C [Fumagillin] | -9.86 ± 16 | 0 | 23 ± 9 | -117 ± 8.1 | 19.2 ± 21 |  | 
7 | OCc1ccco1 [Furfuryl alcohol] | 37.8 ± 37 | 0 | 74.3 ± 13 | -74.1 ± 7.2 | -37.2 ± 5.8 |  | 
8 | CC[C@@]1(O)C(=O)OCc2c1cc1n(c2=O)Cc2c-1nc1ccccc1c2/C=N/OC(C)(C)C [Gimatecan] | 57.7 ± 22 | 24.2 ± 3.5 | 38.5 ± 5.3 | -75.2 ± 18 | 30.4 ± 65 | 0.99 ± 0.6 | 
9 | OC12N=C(c3ccccc3)SC1Cc1cc(Cl)ccc12 (stereo unspecified) [HMR1426] | 86.8 ± 69 | 0 |  |  |  |  | 28.9
10 | ClC1=C(Cl)C(Cl)(Cl)C(Cl)=C1Cl [Hexachlorocyclopentadiene] | 48.2 ± 5.1 | 83.1 ± 8.1 | 30.4 ± 13 | -137 ± 8.4 | -11.3 ± 2.7 |  | 
11 | COP(=S)(Oc1cc(Cl)c(Br)cc1Cl)c1ccccc1 (stereo unspecified) [Leptophos] | 21.4 ± 11 | 33.4 ± 20 | 41.6 ± 5.3 | -94.8 ± 3.7 | 3.37 ± 19 | 46.5 ± 3.1 | 
12 | C=CC(C)(CCC=C(C)C)OC(=O)CC(C)C (stereo unspecified) [Linalyl isovalerate] | 4.06 ± 7 | 0 | 6.04 ± 4.1 | -30.6 ± 8 | 2.12 ± 19 |  | 
13 | CCOC(=O)CC(SP(=S)(OC)OC)C(=O)OCC (stereo unspecified) [Malathion] | 10.2 ± 27 | 1.28 ± 2.2 | 3.05 ± 0.2 | -114 ± 8.5 | 38.6 ± 20 |  | 
14 | CC(C)Nc1ccc(Nc2ccccc2)cc1 [N-Isopropyl-N'-phenyl-p-phenylenediamine] | -24.8 ± 11 | 40.6 ± 19 | 2.82 ± 1 | -67.5 ± 20 | -5.38 ± 9.3 | 20.5 ± 6.5 | 
15 | Nc1ccc(Nc2ccccc2)cc1 [N-Phenyl-1,4-benzenediamine] | 48.5 ± 28 | 5.67 ± 11 | 7.77 ± 3.2 | -101.7 ± 0.97 | -11.4 ± 12 |  | 
16 | CCCCCCCCCCCC(=O)NCCCN(C)C [N-[3-(Dimethylamino)propyl]dodecanamide] | 4.32 ± 44 | 36.3 ± 13 |  | 18 ± 19 | 168 ± 11 | 42.1 ± 9.5 | 

Row | Compound | efficacy of ARE luciferase induction [1] | efficacy of IL-8 induction [2] | AC50 [3] [µM] | efficacy of cysteine peptide change [4] | efficacy of lysine peptide change [5] | cytotoxicity AC50 [6] [µM] | AC50 of Nrf2/ARE luciferase induction [7] [µM]
17 | O=C(O)c1ccccc1C(=O)Nc1cccc2ccccc12 [Naptalam*] | 61.4 ± 78 | 7.99 ± 7 | 4 ± 1.3 | -104 ± 4.3 | 10.2 ± 26 | 25.1 | 
18 | O=C(N/N=C/c1ccc([N+](=O)[O-])o1)c1cc([N+](=O)[O-])cc([N+](=O)[O-])c1O [Nifursol] | 25.2 ± 9.3 | 0 | 77.9 ± 29 | -105 ± 6.6 | -10.9 ± 19 |  | 
19 | CCCCC1C(=O)N(c2ccccc2)N(c2ccc(O)cc2)C1=O (stereo unspecified) [Oxyphenbutazone] | 221 ± 160 | 31.1 ± 25 | 2.39 ± 0.7 | -95.2 ± 6.3 | 12.6 ± 12 | 11.7 ± 0.79 | 
20 | Nc1ccc(/N=N/c2ccccc2)c(N)n1 [Phenazopyridine hydrochloride] | 35.5 ± 17 | 51.3 ± 29 |  | -35 ± 6.8 | 26.2 ± 4.5 | 66.8 ± 15 | 
21 | N#CCC#N [Propanedinitrile] | 31.6 ± 5.9 | 0 | 72.9 ± 20 | -64.6 ± 10 | 8.33 ± 14 |  | 
22 | Fc1ccc(Oc2ccnc3cc(Cl)cc(Cl)c23)cc1 [Quinoxyfen] | -5.76 ± 35 | 25.9 ± 3.1 |  | 3.98 ± 6.9 | -7.82 ± 12 | 57 ± 12 | 
23 | Oc1ccc(/C=C/c2cc(O)cc(O)c2)cc1 [Resveratrol] | 29.2 ± 6.2 | 3.12 ± 5.4 | 25.9 ± 11 | -69.8 ± 10 | -22.5 ± 15 |  | 
24 | C[n+]1cc2c3c(ccc2c2ccc4cc5c(cc4c21)OCO5)OCO3 [Sanguinarine] | -34.7 ± 1.6 | 59.1 ± 21 |  | 58.9 ± 18 | 114 ± 27 | 7.37 ± 0.5 | 
25 | NC(=O)n1c(O)c(C(=O)c2cccs2)c2cc(Cl)ccc21 [Tenidap*] | 19.7 ± 5.4 | 4.22 ± 7.3 | 50.1 | -110 ± 11 | 11.2 ± 11 | 53.4 ± 15 | 
26 | CCCCCCCCCCCCCC[N+](C)(C)C [Tetradonium bromide] | -21.2 ± 4.7 | 43 ± 20 |  | 61.4 ± 19 | 103 ± 44 | 14.2 ± 1.6 | 
27 | c1ccc2[nH]c(-c3cscn3)nc2c1 [Thiabendazole] | 33 ± 4.4 | 11.1 ± 3.7 |  | 2.83 ± 4.9 | 0.27 ± 31 | 14.8 ± 1.9 | 
28 | CS/C(C)=N\OC(=O)N(C)SN(C)C(=O)O/N=C(\C)SC [Thiodicarb] | -25.2 ± 33 | 10.8 ± 9.8 | 0.59 ± 0.11 | -96.8 ± 3.2 | 38.2 ± 2.7 |  | 
29 | O=C(CS)Nc1ccccc1 [Thioglycolic acid anilide] | -15.9 ± 47 | 35.1 ± 9.2 | 2.54 ± 0.48 | -109 ± 7.9 | 28 ± 5.4 |  | 
30 | CCN(CC)CCSC(=O)C(c1ccccc1)c1ccccc1 [Thiphenamil] | 63.3 ± 29 | 8.63 ± 8 | 18.7 ± 3.4 | -82.9 ± 1.6 | 17.2 ± 18 |  | 
31 | [OH-].c1cc[c]([Sn+]([c]2ccccc2)[c]2ccccc2)cc1 [Triphenyltin hydroxide] | 429 ± 120 | 16.4 ± 2.2 |  | -39.1 ± 94 | 14.6 ± 2.5 | 2.82 | 
32 | CCC(C)(NC(=O)c1cc(Cl)c(C)c(Cl)c1)C(=O)CCl (stereo unspecified) [Zoxamide] | 60.2 ± 4.2 | 84.9 ± 14 |  | -8.25 ± 7.4 | 19.4 ± 7.3 | 41.4 ± 2.8 | 
